Experimental data: publication PMC8455565 (Scientific Reports, 2021)

Experiments:
CIA model rats = test: Histopathological assessment of arthritis in CIA rats; assay type: in vivo, rat; conditions: for Histological assessment (Means of the 4 indexes): mean ± SEM
Description: Briefly, the hind legs of each rat were fixed with 10% formalin, decalcified in 5% formic acid, embedded in paraffin, and cut for pathological staining. Arthritis, bone erosion and synovitis were determined by hematoxylin and eosin (H&E) staining, and cartilage damage was evaluated by safranin O staining. All parameters were scored on a scale of 0 to 4 based on severity according to the following criteria: 0 = no erosion, 1 = mild (focal subchondral erosion), 2 = moderate (multiple subchondral erosions), 3 = high (multiple subchondral erosions and focal erosion of the talus), and 4 = maximum (multiple erosions of the tarsal and metatarsal bones). This test was conducted by the Department of Pathology of Asan Medical Center (University of Ulsan College of Medicine, Republic of Korea).

B cells = test: B cell inhibition in whole blood; assay type: cell-based
BTK = BTK (Homo sapiens, UniProt Q06187); test: BTK occupancy in whole blood ex vivo; assay type: cell-based; parameters: from tissue; host or cells: whole blood
TXK = target: T1, TXK (Homo sapiens, UniProt P42681); test: Kinase biochemical assay (FRET), TXK; conditions: read-out: inhibitory activity on TXK
T1 sequence (P42681 1-527): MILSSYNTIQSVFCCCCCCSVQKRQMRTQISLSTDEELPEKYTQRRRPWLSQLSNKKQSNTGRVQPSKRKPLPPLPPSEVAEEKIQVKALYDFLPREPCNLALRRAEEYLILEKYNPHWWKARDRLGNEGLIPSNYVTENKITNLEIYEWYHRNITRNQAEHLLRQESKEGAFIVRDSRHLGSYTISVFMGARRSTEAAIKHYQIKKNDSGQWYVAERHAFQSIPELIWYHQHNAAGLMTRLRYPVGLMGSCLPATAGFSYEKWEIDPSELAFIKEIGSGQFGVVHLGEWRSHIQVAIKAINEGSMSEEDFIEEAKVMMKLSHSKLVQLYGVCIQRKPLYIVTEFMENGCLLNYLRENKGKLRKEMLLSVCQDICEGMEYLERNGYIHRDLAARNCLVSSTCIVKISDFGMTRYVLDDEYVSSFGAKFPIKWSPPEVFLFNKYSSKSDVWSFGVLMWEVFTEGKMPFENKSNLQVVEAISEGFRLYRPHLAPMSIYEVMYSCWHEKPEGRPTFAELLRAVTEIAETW

TEC = target: T2, TEC (Homo sapiens, UniProt P42680); test: Kinase biochemical assay (FRET), TEC; conditions: read-out: inhibitory activity on TEC
T2 sequence (P42680 1-631): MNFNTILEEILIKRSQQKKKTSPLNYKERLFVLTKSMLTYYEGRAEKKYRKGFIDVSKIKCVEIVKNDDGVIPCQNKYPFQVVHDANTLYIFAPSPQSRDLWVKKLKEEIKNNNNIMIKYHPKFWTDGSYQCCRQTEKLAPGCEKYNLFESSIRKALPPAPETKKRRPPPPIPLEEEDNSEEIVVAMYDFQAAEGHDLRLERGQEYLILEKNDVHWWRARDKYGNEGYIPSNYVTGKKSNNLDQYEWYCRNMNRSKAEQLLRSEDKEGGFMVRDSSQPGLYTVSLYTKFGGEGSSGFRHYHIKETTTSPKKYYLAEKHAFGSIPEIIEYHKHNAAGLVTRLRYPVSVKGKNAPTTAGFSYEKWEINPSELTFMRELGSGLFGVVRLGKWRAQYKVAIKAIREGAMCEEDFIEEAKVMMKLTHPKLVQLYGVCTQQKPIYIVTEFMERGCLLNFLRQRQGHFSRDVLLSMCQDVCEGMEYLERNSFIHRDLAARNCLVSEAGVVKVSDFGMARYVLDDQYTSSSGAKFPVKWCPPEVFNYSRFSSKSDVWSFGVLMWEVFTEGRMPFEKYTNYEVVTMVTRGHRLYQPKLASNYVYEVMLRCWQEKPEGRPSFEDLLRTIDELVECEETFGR

Neutrophils (LPS) = test: High-dimensional phosphorylation analysis, Neutrophils (LPS); assay type: cell-based, human; conditions: 30 µM, 15'
Description: The analysis measured 94 intracellular signaling nodes (81 phosphorylation sites, 10 total protein levels and 3 methylation/acetylation sites) in stimulated immune cells, including B cells (IgM plus CD40L), CD4 + and CD8 + T cells (IL-2; CD3 plus CD28), monocytes (M-CSF), NK cells (IL-2), and granulocytes (LPS).

[1] = 3 mg/kg, ankle joints, vs CIA control

Sequence of BTK (Q06187 whole entry): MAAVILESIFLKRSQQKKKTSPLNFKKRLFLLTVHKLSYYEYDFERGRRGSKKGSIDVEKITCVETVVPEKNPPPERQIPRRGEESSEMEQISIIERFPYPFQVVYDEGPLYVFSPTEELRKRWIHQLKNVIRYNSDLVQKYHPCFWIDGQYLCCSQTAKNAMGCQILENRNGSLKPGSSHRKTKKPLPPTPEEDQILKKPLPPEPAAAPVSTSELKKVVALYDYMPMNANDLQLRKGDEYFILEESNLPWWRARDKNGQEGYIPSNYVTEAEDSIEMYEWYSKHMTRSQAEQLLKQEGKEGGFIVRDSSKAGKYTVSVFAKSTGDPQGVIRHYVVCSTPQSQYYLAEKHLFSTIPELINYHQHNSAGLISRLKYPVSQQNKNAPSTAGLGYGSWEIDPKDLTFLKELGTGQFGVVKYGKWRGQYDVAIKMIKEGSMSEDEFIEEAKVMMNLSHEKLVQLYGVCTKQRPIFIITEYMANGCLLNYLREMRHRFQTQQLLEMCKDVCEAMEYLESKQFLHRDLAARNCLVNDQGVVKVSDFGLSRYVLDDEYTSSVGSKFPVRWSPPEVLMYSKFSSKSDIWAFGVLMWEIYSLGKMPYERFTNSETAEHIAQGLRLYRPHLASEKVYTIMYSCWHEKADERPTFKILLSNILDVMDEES

C=CC(=O)Nc1cccc(Oc2nc(Nc3ccc(N4CCN(C)CC4)cc3)nc3ccoc23)c1 [Poseltinib]
Histological assessment (Means of the 4 indexes) (CIA model rats; 0.3 mg/kg oral once daily): 6.9 ± 0.2 | Histological assessment (Means of the 4 indexes) (CIA model rats; 1 mg/kg oral once daily): 6.3 ± 0.2 | Histological assessment (Means of the 4 indexes) (CIA model rats; 3 mg/kg oral once daily): 4.1 ± 0.2 | arthritis index reduction (CIA model rats; [1]): 44% | bone erosion index reduction (CIA model rats; [1]): 38% | cartilage degradation index reduction (CIA model rats; [1]): 37% | synovitis index reduction (CIA model rats; [1]): 37% | IC50 (B cells): 420 nM | IC50 (BTK): 160 nM | IC50 (TXK): < 10 nM | IC50 (TEC): < 10 nM | 4ebp1 phosphorylation, Log2Ratio Stim/Control (Neutrophils (LPS)): 0.28 | AKT1 phosphorylation, Log2Ratio Stim/Control (Neutrophils (LPS)): 0.66 | AMPK phosphorylation, Log2Ratio Stim/Control (Neutrophils (LPS)): 0.29 | Akt phosphorylation, Log2Ratio Stim/Control (Neutrophils (LPS)): 0.66 | BTK phosphorylation, Log2Ratio Stim/Control (Neutrophils (LPS)): -0.25 | HSP27 phosphorylation, Log2Ratio Stim/Control (Neutrophils (LPS)): 0.34 | MAP2K1 phosphorylation, Log2Ratio Stim/Control (Neutrophils (LPS)): 2.38 | MNK phosphorylation, Log2Ratio Stim/Control (Neutrophils (LPS)): 0.40 | RPS6 phosphorylation, Log2Ratio Stim/Control (Neutrophils (LPS)): 0.66
